According to ChEMBL document CHEMBL1201862, “PubChem BioAssay data set” (2004):
Calls of active or inactive are those of the source.

Legend:
[1] = biological target: 1-phosphatidylinositol 4,5-bisphosphate phosphodiesterase gamma-1 (Homo sapiens, UniProt P19174); assay: Counterscreen for inhibitors of phospholipase C isozymes (PLC-B3): Fluorescence-based biochemical high throughput dose response assay to identify inhibitors of phospholipase C isozymes (PLC-gamma1).
[2] = biological target: 1-phosphatidylinositol 4,5-bisphosphate phosphodiesterase beta-3 (Homo sapiens, UniProt Q01970); assay: Fluorescence-based biochemical high throughput dose response assay to identify inhibitors of phospholipase C isozymes (PLC-B3).
Kallikrein-7 = Kallikrein-7 (Homo sapiens, UniProt P49862); assay: Fluorescence Intensity-based biochemical primary high throughput dose response assay to identify activators of kallikrein-7 (K7) zymogen.
[3] = biological target: T1, Heat shock factor protein 1 (Mus musculus, UniProt P38532); assay: HSF1 potentiators in luciferase reporter cells, confirmation, cell-based, NIH3T3, luminescence, dose retest (AID 435004); assay type: functional;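 note: stress induced by proteasome inhibitor MG132 added 30 min after compound; luciferase reporter driven by HSF1 response element in NIH3T3 cells; actives raise luminescence as potentiators of the MG132 stress response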
T1 sequence (P38532 whole entry): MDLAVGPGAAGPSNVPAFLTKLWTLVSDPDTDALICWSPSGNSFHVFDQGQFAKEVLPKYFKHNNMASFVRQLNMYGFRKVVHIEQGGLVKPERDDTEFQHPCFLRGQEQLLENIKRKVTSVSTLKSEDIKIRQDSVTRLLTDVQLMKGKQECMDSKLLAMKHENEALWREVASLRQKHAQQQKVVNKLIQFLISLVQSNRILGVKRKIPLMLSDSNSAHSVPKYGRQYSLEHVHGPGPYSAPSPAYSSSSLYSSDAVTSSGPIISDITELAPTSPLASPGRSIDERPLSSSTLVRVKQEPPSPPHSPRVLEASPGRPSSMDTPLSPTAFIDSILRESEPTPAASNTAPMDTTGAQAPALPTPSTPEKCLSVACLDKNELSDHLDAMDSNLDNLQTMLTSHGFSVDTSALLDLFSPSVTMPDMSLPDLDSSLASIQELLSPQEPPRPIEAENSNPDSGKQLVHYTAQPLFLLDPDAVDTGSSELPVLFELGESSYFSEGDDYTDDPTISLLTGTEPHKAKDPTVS

[4] = biological target: T2, Methionyl-tRNA synthetase, putative (Trypanosoma brucei brucei, UniProt Q38C91); assay type: functional, Trypanosoma brucei brucei strain 927/4 GUTat10.1
T2 sequence (Q38C91 whole entry): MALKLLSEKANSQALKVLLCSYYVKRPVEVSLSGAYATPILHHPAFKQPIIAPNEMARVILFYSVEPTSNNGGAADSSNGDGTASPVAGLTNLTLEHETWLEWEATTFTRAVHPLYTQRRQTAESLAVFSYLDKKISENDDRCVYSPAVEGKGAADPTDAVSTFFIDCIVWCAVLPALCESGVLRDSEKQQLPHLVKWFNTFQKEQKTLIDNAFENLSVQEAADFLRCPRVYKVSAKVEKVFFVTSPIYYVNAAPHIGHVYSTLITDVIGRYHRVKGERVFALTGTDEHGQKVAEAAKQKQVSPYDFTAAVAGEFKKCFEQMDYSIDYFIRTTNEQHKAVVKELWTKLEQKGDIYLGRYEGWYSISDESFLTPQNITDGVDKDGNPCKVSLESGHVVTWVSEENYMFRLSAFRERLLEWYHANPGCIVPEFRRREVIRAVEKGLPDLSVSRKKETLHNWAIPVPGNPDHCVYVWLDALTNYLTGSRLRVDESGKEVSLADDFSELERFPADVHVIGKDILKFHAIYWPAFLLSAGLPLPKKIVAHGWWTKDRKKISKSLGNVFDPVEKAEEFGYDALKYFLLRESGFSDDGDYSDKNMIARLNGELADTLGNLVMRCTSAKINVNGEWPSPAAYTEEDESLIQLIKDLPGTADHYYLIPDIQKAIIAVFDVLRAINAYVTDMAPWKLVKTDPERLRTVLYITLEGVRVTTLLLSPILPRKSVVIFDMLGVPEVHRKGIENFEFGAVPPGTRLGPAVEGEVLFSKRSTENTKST

[5] = Counterscreen for inhibitors of Trypanosoma brucei methionyl tRNA synthetase (MetRS): Luminescence-based cell-based high throughput dose response assay to identify compounds that are cytotoxic to Jurkat human T lymphocyte cells.; assay type: functional
[6] = biological target: T2, Methionyl-tRNA synthetase, putative; assay type: functional, Trypanosoma brucei brucei strain 927/4 GUTat10.1; remark: listed apart in the source
[7] = Late stage counterscreen for inhibitors of Trypanosoma brucei methionyl tRNA synthetase (MetRS): Luminescence-based cell-based high throughput dose response assay to identify compounds that are cytotoxic to Jurkat human T lymphocyte cells.; assay type: functional
Beta-lactamase [8] = biological target: Beta-lactamase (Salmonella choleraesuis (strain SC-B67), UniProt Q5J463); assay: Epi-absorbance-based counterscreen for selective VIM-2 inhibitors: dose response biochemical high throughput screening assay to identify inhibitors of TEM-1 serine-beta-lactamase.
Beta-lactamase [9] = biological target: T3, Beta-lactamase (Pseudomonas aeruginosa, UniProt Q79MP6); assay: IMP-1 metallo-beta-lactamase inhibitors, dose response, selectivity assay for VIM-2 inhibitor project, biochemical, epi-absorbance (AID 1920)
Beta-lactamase [10] = biological target: T3, Beta-lactamase; assay: […] counterscreen for selective VIM-2 inhibitors: dose response biochemical high throughput screening assay to identify inhibitors of IMP-1 metallo-beta-lactamase.
[11] = biological target: Bifunctional protein GlmU (Mycobacterium tuberculosis, UniProt P9WMN3); assay: Inhibitors of Mycobacterial Glucosamine-1-phosphate acetyl transferase (GlmU). Secondary screen.; design: species or system Mycobacterium tuberculosis H37Rv
[12] = biological target: T4, Carboxy-terminal domain RNA polymerase II polypeptide A small phosphatase 1 (Homo sapiens, UniProt Q9GZU7); assay: inhibitors of CTDSP1, concentration-response testing, biochemical assay, absorbance-based, actives from ultra-high-throughput screening (AID 540297); assay type: functional
T4 sequence (Q9GZU7 whole entry): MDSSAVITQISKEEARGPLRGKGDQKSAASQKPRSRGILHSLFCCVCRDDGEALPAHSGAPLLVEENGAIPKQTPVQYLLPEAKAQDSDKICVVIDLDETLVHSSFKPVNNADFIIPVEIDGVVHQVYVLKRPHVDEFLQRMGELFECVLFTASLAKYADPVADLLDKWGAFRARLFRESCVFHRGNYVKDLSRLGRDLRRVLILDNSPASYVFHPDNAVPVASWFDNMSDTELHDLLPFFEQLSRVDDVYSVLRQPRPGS

[13] = biological target: Tyrosine-protein phosphatase non-receptor type 11 (Homo sapiens, UniProt Q06124); assay: SHP2 phosphatase inhibition, dose response, selectivity assay for STEP inhibitor project, biochemical (AID 602367); assay type: functional; conditions: read-out: IC50_Mean
[14] = biological target: Tyrosine-protein phosphatase non-receptor type 5 (Homo sapiens, UniProt P54829); assay: STEP phosphatase inhibitors, confirmation, biochemical, fluorescence intensity, uHTS hits (AID 602372); assay type: functional; conditions: read-out: IC50_Mean
[15] = biological target: Dual specificity protein phosphatase 3 (Homo sapiens, UniProt P51452); assay: VHR phosphatase inhibition, dose response, selectivity assay for STEP inhibitor project, biochemical (AID 602374); assay type: functional; conditions: read-out: IC50_Mean
[16] = biological target: Disintegrin and metalloproteinase domain-containing protein 17 (Homo sapiens, UniProt P78536); assay: exosite inhibitors of ADAM17, dose response, biochemical (AID 743260)
[17] = ADAM10 protease inhibitors, dose response, selectivity assay for ADAM17 exosite inhibitor project, biochemical, FRET peptide substrate, recombinant human ADAM10 (AID 743259);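 note: ADAM10 enzyme cleaving a FRET peptide substrate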
[18] = P. falciparum late gametocyte killing, dose response, luminescence (AID 1117278); assay type: functional, cell-based;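 note: gametocytes exposed to compound for 24 hours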
[19] = Jurkat T cell cytotoxicity, dose response, cytotoxicity control for P. falciparum gametocyte viability project, luminescence (AID 1117277); assay type: functional, cell-based;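 note: potency reflects loss of cellular ATP meaning fewer viable cells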
fMet-Leu-Phe receptor = fMet-Leu-Phe receptor (Homo sapiens, UniProt P21462); assay: FPR ligands, dose response (AID 519); assay type: functional
Chain of fMet-Leu-Phe receptor (P21462 whole entry): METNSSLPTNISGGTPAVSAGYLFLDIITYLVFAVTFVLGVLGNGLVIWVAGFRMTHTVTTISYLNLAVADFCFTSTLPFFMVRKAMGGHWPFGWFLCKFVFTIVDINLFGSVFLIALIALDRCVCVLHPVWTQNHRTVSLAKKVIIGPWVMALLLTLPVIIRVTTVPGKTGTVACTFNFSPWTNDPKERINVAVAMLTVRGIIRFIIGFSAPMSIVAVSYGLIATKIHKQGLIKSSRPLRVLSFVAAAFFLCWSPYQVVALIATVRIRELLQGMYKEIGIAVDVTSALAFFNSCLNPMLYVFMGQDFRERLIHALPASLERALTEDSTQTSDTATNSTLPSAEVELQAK

Chain of Kallikrein-7 (P49862 whole entry): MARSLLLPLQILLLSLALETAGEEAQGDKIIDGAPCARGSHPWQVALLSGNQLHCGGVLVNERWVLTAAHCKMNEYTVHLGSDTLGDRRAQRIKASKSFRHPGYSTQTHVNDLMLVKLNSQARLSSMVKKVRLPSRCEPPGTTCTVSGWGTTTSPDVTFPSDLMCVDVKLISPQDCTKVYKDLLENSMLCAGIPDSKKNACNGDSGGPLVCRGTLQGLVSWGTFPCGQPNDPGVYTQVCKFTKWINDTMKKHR
T3 sequence (Q79MP6 whole entry): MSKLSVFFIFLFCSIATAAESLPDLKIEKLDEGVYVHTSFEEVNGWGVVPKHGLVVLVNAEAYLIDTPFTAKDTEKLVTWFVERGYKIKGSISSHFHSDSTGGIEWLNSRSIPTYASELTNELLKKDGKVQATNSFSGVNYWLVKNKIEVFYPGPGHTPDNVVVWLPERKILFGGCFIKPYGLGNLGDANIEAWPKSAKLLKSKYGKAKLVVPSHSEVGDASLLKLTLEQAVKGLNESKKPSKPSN
Chain of Dual specificity protein phosphatase 3 (P51452 whole entry, the tested form may be a part): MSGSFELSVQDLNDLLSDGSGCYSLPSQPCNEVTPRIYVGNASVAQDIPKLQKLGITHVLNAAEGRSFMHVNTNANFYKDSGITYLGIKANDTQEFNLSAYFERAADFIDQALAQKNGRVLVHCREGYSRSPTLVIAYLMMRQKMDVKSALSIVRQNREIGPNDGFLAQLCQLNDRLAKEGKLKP
Chain of 1-phosphatidylinositol 4,5-bisphosphate phosphodiesterase beta-3 (Q01970 whole entry): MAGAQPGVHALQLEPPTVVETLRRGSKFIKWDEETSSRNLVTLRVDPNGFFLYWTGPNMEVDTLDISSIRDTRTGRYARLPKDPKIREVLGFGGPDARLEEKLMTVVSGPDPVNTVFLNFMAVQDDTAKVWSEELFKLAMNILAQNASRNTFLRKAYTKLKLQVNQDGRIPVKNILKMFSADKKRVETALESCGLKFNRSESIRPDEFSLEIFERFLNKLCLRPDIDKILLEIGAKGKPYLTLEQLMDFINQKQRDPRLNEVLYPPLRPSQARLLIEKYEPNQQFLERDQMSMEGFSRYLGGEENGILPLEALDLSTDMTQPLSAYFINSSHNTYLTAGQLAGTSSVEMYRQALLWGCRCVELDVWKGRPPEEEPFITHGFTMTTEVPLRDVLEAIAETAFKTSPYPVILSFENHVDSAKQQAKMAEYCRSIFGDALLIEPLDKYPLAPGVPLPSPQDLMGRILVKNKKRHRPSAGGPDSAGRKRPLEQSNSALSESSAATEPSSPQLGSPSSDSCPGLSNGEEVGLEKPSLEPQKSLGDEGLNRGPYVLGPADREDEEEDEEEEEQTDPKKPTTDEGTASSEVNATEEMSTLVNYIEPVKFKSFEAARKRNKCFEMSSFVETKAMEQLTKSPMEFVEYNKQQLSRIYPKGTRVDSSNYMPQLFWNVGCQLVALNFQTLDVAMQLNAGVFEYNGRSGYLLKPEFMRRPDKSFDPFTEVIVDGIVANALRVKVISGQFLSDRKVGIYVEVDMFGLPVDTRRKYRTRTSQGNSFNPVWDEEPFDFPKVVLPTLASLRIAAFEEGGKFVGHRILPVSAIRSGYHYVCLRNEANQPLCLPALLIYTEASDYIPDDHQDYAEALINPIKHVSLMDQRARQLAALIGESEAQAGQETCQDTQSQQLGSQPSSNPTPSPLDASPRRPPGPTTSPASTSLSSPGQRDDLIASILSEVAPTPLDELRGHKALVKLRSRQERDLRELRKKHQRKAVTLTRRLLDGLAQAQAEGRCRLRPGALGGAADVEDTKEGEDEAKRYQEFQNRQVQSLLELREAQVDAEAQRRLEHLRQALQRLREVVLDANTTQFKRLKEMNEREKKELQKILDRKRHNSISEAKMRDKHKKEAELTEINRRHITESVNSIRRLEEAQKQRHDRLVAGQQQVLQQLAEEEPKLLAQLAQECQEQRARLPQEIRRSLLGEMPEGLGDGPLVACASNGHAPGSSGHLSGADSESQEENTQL
Chain of Tyrosine-protein phosphatase non-receptor type 5 (P54829 whole entry): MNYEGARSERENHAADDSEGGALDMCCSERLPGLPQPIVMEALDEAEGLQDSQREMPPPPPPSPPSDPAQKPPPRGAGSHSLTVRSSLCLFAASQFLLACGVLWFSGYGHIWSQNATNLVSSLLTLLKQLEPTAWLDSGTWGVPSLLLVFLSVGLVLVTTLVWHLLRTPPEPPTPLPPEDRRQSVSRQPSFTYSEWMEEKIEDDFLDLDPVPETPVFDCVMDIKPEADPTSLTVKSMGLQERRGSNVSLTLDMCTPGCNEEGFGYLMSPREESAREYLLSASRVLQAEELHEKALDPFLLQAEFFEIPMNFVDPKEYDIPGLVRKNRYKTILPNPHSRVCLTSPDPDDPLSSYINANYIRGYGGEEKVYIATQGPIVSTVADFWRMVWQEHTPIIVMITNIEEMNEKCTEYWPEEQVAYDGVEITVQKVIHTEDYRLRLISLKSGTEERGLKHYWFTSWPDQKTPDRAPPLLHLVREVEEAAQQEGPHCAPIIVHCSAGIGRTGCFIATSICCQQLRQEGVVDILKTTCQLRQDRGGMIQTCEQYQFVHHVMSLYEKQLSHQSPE
Chain of Beta-lactamase (Salmonella choleraesuis (strain SC-B67), UniProt Q5J463) (Q5J463 whole entry): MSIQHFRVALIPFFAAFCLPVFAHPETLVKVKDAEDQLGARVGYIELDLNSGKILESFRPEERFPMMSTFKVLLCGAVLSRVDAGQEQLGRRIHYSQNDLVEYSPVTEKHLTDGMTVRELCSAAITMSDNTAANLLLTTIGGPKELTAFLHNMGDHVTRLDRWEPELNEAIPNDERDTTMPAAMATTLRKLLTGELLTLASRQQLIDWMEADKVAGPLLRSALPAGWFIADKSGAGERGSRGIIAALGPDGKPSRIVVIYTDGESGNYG
Chain of Bifunctional protein GlmU (P9WMN3 whole entry, the tested form may be a part): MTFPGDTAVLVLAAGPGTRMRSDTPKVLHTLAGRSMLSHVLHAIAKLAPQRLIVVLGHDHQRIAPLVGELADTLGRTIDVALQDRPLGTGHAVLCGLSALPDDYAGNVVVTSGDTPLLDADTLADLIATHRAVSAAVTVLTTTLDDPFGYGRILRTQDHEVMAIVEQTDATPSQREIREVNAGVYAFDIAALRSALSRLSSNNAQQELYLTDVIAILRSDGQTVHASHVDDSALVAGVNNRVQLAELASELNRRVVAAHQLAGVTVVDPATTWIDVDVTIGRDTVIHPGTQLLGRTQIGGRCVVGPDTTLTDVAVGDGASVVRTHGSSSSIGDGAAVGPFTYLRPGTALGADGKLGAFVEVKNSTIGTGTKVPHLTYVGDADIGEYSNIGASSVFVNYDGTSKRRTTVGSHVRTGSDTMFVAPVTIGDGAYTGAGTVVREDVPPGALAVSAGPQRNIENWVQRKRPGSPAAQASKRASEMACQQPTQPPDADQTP
Chain of Disintegrin and metalloproteinase domain-containing protein 17 (P78536 whole entry, the tested form may be a part): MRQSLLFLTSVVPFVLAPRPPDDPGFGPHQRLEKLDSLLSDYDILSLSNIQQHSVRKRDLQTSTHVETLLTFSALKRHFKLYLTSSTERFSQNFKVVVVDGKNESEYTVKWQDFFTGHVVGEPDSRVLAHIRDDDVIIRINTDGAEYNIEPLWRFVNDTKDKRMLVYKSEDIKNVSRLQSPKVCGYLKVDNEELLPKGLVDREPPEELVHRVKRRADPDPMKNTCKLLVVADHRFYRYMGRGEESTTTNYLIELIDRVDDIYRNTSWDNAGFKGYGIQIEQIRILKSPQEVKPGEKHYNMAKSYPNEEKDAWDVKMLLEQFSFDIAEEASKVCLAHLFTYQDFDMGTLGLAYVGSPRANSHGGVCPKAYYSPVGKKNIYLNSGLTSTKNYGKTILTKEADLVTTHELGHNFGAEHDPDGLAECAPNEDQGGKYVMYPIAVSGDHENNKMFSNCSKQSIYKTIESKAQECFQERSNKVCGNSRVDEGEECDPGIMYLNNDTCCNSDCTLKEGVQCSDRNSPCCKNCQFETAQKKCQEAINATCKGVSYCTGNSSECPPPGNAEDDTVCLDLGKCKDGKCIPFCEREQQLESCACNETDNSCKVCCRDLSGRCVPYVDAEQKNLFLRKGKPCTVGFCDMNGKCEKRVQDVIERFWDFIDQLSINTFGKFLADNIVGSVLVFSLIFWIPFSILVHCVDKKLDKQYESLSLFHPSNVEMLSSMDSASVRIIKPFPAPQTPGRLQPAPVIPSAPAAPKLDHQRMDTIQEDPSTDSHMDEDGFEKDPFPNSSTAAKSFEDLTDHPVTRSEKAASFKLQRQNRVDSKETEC

CC(C)(C)c1cc(C(=O)NNC(=O)Nc2ccccc2)n(Cc2ccccc2)n1
IC50 [1]: > 122 µM (inactive) | IC50 [2]: > 122 µM (inactive)

O=C(O)CCN1c2cccc3cccc(c23)S1(=O)=O
EC50 (Kallikrein-7): > 7.72 µM (active)

O=C(NCCc1nc2ccccc2[nH]1)c1ccc(Cl)c([N+](=O)[O-])c1
EC50 [3]: > 260 µM (inactive) | IC50 [4]: 0.221 µM (active) | IC50 [5]: 44.4 µM (inactive) | IC50 [6]: 0.17 µM (active) | IC50 [7]: > 83.3 µM (inactive)

Cc1cc(=O)oc2c3c(cc(OCC(=O)N[C@@H](Cc4ccccc4)C(=O)O)c12)OC(C)(C)CC3
IC50 (Beta-lactamase [8]): > 59.6 µM (inactive) | IC50 (Beta-lactamase [9]): > 59.6 µM (inactive) | IC50 (Beta-lactamase [10]): > 59.6 µM (inactive) | EC50 (Kallikrein-7): 49 µM (inactive)

CC1C=CC(C)C(C(=O)O)C1C(=O)O (configuration not stated)
IC50 [11]: 144 µM (active) | IC50 [12]: 4.36 µM (active)

Brc1c[nH]c2nc(SCc3nc4ccccc4[nH]3)nc-2c1
IC50 [4]: 7.89 µM (active) | IC50 [5]: 83.3 µM (inactive) | IC50 [6]: 4.23 µM (active) | IC50 [7]: > 83.3 µM (inactive)

CCN(c1ccccc1)S(=O)(=O)c1cc(C(=O)OC(C)C(=O)Nc2ccc3c(c2)OCCO3)ccc1C (configuration not stated)
IC50 [12]: 4.38 µM (active) | IC50 [13]: 2.47 µM (active) | IC50 [14]: > 80 µM (inactive) | IC50 [15]: 5.05 µM (active) | IC50 [16]: > 69.5 µM (inactive) | IC50 [17]: > 7.72 µM (active)

COc1ccc(-n2c(-c3ccco3)nc3c(cnn3-c3ccccc3C)c2=O)cc1
IC50 [18]: > 109 µM (inactive) | IC50 [19]: > 83.3 µM (inactive)

Cc1ccc(C(=O)C2=C(O)C(=O)N(CCN3CCOCC3)C2c2cccnc2)cc1 (configuration not stated)
Ki (fMet-Leu-Phe receptor): > 66.7 µM (inactive)
